Test in all cases: NCI60 one-dose screen
What all share (type): cell-based

One assay has as its system A498. To be noted: Homo sapiens; A498, 10 μM; read-out: Growth percent. In short, it runs like this:
(§1)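 Percent growth is reported relative to untreated control and to the cell number at drug addition, so values below 0 indicate cell killing. It was measured by SRB protein staining after 48 h incubation with 10 µM compound.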

For the next assay, the system named is ACHN. To be noted: Homo sapiens, read-out: Growth percent. In short, it runs like this:
as §1

For the next assay, the system named is CCRF-CEM. The following applies: Homo sapiens, read-out: Growth percent. In short, it runs like this:
as §1

For another assay, the system named is COLO 205. To be noted: Homo sapiens; COLO 205, 10 μM; read-out: Growth percent. Summed up: as §1
The test system of a further assay is HOP-62. The following applies: Homo sapiens; HOP-62, 10 μM; read-out: Growth percent. Summed up:
as §1

The next assay concerns KM12. The following applies: Homo sapiens; KM12, 10 μM; read-out: Growth percent. Summed up:
as §1

For the next assay, the system named is M14. To be noted: Homo sapiens; M14, 10 μM; read-out: Growth percent. Summed up:
as §1

Another assay relates to MDA-MB-231/ATCC. The following applies: Homo sapiens, read-out: Growth percent. Summed up:
as §1

The subject of the next assay is NCI-H226. To be noted: Homo sapiens; NCI-H226, 10 μM; read-out: Growth percent. In short, it runs like this: as §1
The next assay has as its system NCI-H322M. To be noted: Homo sapiens, read-out: Growth percent. Summed up: as §1
In a further assay the test system is SK-MEL-28. To be noted: Homo sapiens; SK-MEL-28, 10 μM; read-out: Growth percent. In short, it runs like this: as §1
A further assay relates to SK-MEL-5. To be noted: Homo sapiens; SK-MEL-5, 10 μM; read-out: Growth percent. In short, it runs like this:
as §1

The subject of a further assay is SNB-19. To be noted: Homo sapiens; SNB-19, 10 μM; read-out: Growth percent. In short, it runs like this:
as §1

For a further assay, the system named is RXF 393. To be noted: Homo sapiens; RXF 393, 10 μM; read-out: Growth percent. In short, it runs like this: as §1

Here are results for 9 compounds from publication PMC12652692, “Synthesis and In Vitro Anticancer Evaluation of Novel Phosphonium Derivatives of Chrysin” (International Journal of Molecular Sciences, 2025).

Molecules are shown by their SMILES.

Take `O=c1cc(-c2ccccc2)oc2cc(OCCCC[P+](c3ccccc3)(c3ccccc3)c3ccccc3)cc(O)c12` [3a]: the activity at 10 µM is -83.3% in the assay on A498; -100% in the assay on ACHN; -75.9% in the assay on CCRF-CEM; -56.3% with COLO 205; -63.6% in the assay with HOP-62; -85.2% in the assay with KM12. In addition, the activity at 10 µM with M14 is -70.1%; in the assay on MDA-MB-231/ATCC it was -32.2%; in the assay with NCI-H226, -29%; in the assay on NCI-H322M, -100%; with SK-MEL-28 it was -98.5%; with SK-MEL-5 it was -98.4%. Further, the activity at 10 µM with SNB-19 is -44.5%.
For `Cc1ccc([P+](CCCCOc2cc(O)c3c(=O)cc(-c4ccccc4)oc3c2)(c2ccc(C)cc2)c2ccc(C)cc2)cc1` [3b], the activity at 10 µM is -81.5% with A498; -92.8% in the assay on ACHN; -70.5% in the assay on CCRF-CEM; -64.5% with COLO 205; -62% with HOP-62; -75.5% with KM12. In addition, the activity at 10 µM in the assay with M14 was -75.2%; with MDA-MB-231/ATCC, -90.7%; in the assay on NCI-H226, -50.2%; in the assay with NCI-H322M it was -79.5%; with RXF 393 it was -74.8%; in the assay with SK-MEL-28 it was -85.3%. Further, the activity at 10 µM in the assay with SK-MEL-5 is -96.5%; in the assay on SNB-19, -96.1%.
Take `COc1ccc([P+](CCCCOc2cc(O)c3c(=O)cc(-c4ccccc4)oc3c2)(c2ccc(OC)cc2)c2ccc(OC)cc2)cc1` [3c]: the activity at 10 µM was -83% with A498; -63.5% in the assay on ACHN; -71.7% in the assay with CCRF-CEM; -68.3% with COLO 205; -81.1% in the assay with HOP-62; -86.2% in the assay with KM12. The activity at 10 µM in the assay on M14 is -1.24%; in the assay with MDA-MB-231/ATCC, -72.1%; in the assay on NCI-H226, -67.6%; with NCI-H322M, -45.1%; with RXF 393, -74.4%; in the assay on SK-MEL-28, -44.5%. The results for the activity at 10 µM in the assay with SK-MEL-5 and in the assay on SNB-19 were -93.9% and -78.9%, respectively.
Take `O=c1cc(-c2ccccc2)oc2cc(OCCCC[P+](c3ccc(F)cc3)(c3ccc(F)cc3)c3ccc(F)cc3)cc(O)c12` [3d]: the activity at 10 µM with A498 was -87.6%; in the assay on ACHN, -85.4%; with CCRF-CEM it was -55.9%; in the assay with COLO 205, -68.4%; with HOP-62, -70.8%; in the assay with KM12 it was -81.6%. Also, the activity at 10 µM is -75.5% in the assay on M14; -95% in the assay on MDA-MB-231/ATCC; -56.9% with NCI-H226; -88.3% with NCI-H322M; -84% in the assay on RXF 393; -92% in the assay on SK-MEL-28. For the same compound, the values for the activity at 10 µM with SK-MEL-5 and in the assay with SNB-19 were -99.2% and -97.4%, respectively.
`O=c1cc(-c2ccccc2)oc2cc(OCCCC[P+](C3CCCCC3)(C3CCCCC3)C3CCCCC3)cc(O)c12` [3e]: the activity at 10 µM with A498 is -87.6%; in the assay on ACHN, -72.5%; with CCRF-CEM it was -66.7%; in the assay with COLO 205, -70.2%; with HOP-62, -82.6%; in the assay with KM12 it was -92%. Further, the activity at 10 µM with M14 was -82.2%; with MDA-MB-231/ATCC, -81.6%; with NCI-H226, -56.7%; in the assay with NCI-H322M, -85.2%; in the assay with RXF 393 it was -80%; in the assay with SK-MEL-28 it was -41.4%. Besides, the values for the activity at 10 µM in the assay with SK-MEL-5 and with SNB-19 were -100% and -87.6%, respectively.
As for `COc1c(C)cc([P+](CCCCOc2cc(O)c3c(=O)cc(-c4ccccc4)oc3c2)(c2cc(C)c(OC)c(C)c2)c2cc(C)c(OC)c(C)c2)cc1C` [3f], the activity at 10 µM in the assay with A498 is -83.4%; in the assay on ACHN it was -88.4%; in the assay with CCRF-CEM it was -32.6%; with COLO 205, -62.2%; in the assay with HOP-62, -25.2%; in the assay on KM12, -82.3%. In addition, the activity at 10 µM with M14 was -68.3%; in the assay with MDA-MB-231/ATCC, -74.8%; with NCI-H226, -58.5%; with NCI-H322M, -62.2%; in the assay with RXF 393, -66.9%; with SK-MEL-28, -85.7%. Besides, the activity at 10 µM was -75.2% in the assay on SK-MEL-5 and -76.8% with SNB-19.
In the case of `Cc1ccccc1[P+](CCCCOc1cc(O)c2c(=O)cc(-c3ccccc3)oc2c1)(c1ccccc1C)c1ccccc1C` [3g], the activity at 10 µM is -99.1% with A498; -97% in the assay with ACHN; -96.5% in the assay with CCRF-CEM; -97% in the assay on COLO 205; -98.3% in the assay on HOP-62; -95.8% in the assay with KM12. Moreover, the activity at 10 µM in the assay with M14 was -97.5%; in the assay on NCI-H226, -99.4%; with NCI-H322M, -98.2%; with RXF 393, -98.7%; with SK-MEL-28 it was -98.4%; in the assay on SK-MEL-5, -97.9%. In the assay with SNB-19, the activity at 10 µM is -97.4%.
On to `O=c1cc(-c2ccccc2)oc2cc(OCCCC[P+](c3ccccc3)(c3ccccc3)c3ccccn3)cc(O)c12` [3h], for which the activity at 10 µM in the assay on A498 is -94%; with ACHN, -98%; with CCRF-CEM, -20.7%; with COLO 205, -75.9%; with HOP-62, -57%; in the assay on KM12 it was -94.6%. The activity at 10 µM in the assay on M14 is -84.3%; in the assay on MDA-MB-231/ATCC, -94.3%; in the assay on NCI-H226 it was -50.4%; with NCI-H322M, -94.5%; in the assay on RXF 393, -80.5%; with SK-MEL-28, -94.7%. Besides, the activity at 10 µM in the assay on SK-MEL-5 was -96.3%; in the assay with SNB-19, -91.6%.
`O=c1cc(-c2ccccc2)oc2cc(O)cc(O)c12` [compound 2, 5,7-dihydroxyflavone, reference compound]: the activity at 10 µM turned out to be 86.6% in the assay with A498; 85% with ACHN; 102% in the assay with CCRF-CEM; 105% in the assay with COLO 205; 113% in the assay on HOP-62; 92.9% in the assay with KM12. Further, the activity at 10 µM in the assay with M14 stood at 107%; in the assay on MDA-MB-231/ATCC, 82.6%; with NCI-H226, 86.8%; with NCI-H322M, 98.3%; with RXF 393, 91.2%; in the assay on SK-MEL-28, 102%. Also, the activity at 10 µM was 92.8% in the assay with SK-MEL-5 and 86% in the assay on SNB-19.
